# From US4029731A, “Aminophenyltetralin compounds” (Pfizer Inc., priority 1976, dated 1977)
# Values joined by “and” are separate entries in the source; they are usually repeats but may differ in a detail not shown here. Equal values may be shown once. Where a name gives a salt, the structure may show the parent alone.
# Legend:
# [1] = test system: reserpine-induced hypothermia in the mouse; assay: Reversal of reserpine-induced hypothermia in the mouse; assay type: in vivo; conditions: 32 mg./kg. i.p., 2 hours after dosing; reserpine 2 mg./kg. s.c. 18 hours before; saline control 25.1° ± 3.2° C.
# Protocol: The 1-amino-4-phenyltetraline final products of Examples III-IX were tested for antidepressant activity by measuring their ability to reverse reserpine-induced hypothermia in the mouse according to the procedure described by B.M. Askew in Life Science, Vol. 2, p. 725 (1963). In this test, all the animals were individually housed in plastic chambers with a cardboard bottom. The mice were injected with reserpine subcutaneously at 2 mg./kg. and retained at an ambient temperature of 20° C. for a period of 18 hours. At this point, their rectal temperatures were initially ascertained and immediately thereafter they were divided into groups of 5-20 animals for testing purposes. Each group then received either saline as a control or the compound to be tested at a dose level of 32 mg./kg., administered intraperitoneally, and the resulting rectal temperatures were measured two hours later. In the table below, the entries are reported as mean rectal temperatures for each compound at the 2-hour mark, together with the number of animals tested in each particular group.
# [2] = test system: spontaneous motor activity in mice; assay: Spontaneous motor activity in mice (actophotometer activity counts); assay type: in vivo; conditions: for hyperactive response: same conditions, 0.32, 1.0, 3.2, 10 and 32 mg./kg.
# Protocol: A total of seven mice was employed at each dose level tested (viz., at 0.32, 1.0, 3.2, 10 and 32 mg./kg., i.p., respectively) and these mice were separated one to an activity cage. After an initial one-half hour exposure period (for acclimation purposes), each animal in the cage was treated with a sample of the drug intraperitoneally and immediately thereafter returned to said cage, with activity counts every one-half hour being recorded from that point on.
# [3] = test system: norepinephrine (H^3 NE) uptake into the rat heart; assay: Blockade of tritium-labeled norepinephrine (H^3 NE) uptake into the rat heart in vivo; conditions: 32 μmoles/kg. (8.8 mg./kg.) i.p. 20 minutes before i.v. dl-H^3 NE, each entry a mean from a separate experiment
# Protocol: The 1-amino-4-phenyltetralin final products of Examples IV-V and VIII-IX were tested for antidepressant activity by measuring their ability to block tritium-labeled norepinephrine (H^3 NE) uptake into the rat heart in vivo. For these particular studies, rats in groups of five were pretreated with the control vehicle or the drug to be administered at 32 μmoles/kg. (8.8 mg./kg.), via the intraperitoneal route, followed 20 minutes later by intravenous injection of dl-H^3 NE (having a specific activity of 9.5 c/mmole) at a dose level of 5 μc/kg. The rats were then sacrificed one hour ater administration of said agent (H^3 NE), and the norepinephrine (NE) content present in the heart was subsequently isolated therefrom by means of extraction with alumina, followed by repeated elution of said alumina extracts with 0.05N aqueous hydrochloric acid. The specific activity (cpm/μg.) of H^3 NE in the heart was then determined by measuring the amount of radioactivity (using a liquid scintillation counter) and the NE content (fluorimetrically via an Auto-Analyzer of the type manufactured by the Technicon Instruments Corporation of Chauncey, N.Y.) of the aforesaid aqueous eluates. The results obtained in this manner are presented below in the following table, where the individual entries are each made from a separate experiment and constitute mean relative specific activities expressed in terms of percent control: […]
# [4] = test system: norepinephrine uptake into both rat heart and rat brain; reserpine hypothermia in mice; assay: Antidepressant activity (norepinephrine uptake into rat heart and rat brain in vivo; reversal of reserpine hypothermia in mice); conditions: base and hydrochloride acid addition salts
# Protocol: The activity of the compounds of the present invention as antidepressants is determined by a study of their ability to supress norepinephrine uptake into both rat heart and rat brain (in vivo), together with a determination of their ability to bring about a reversal of reserpine hypothermia in mice.
smiles,measurement,setting,value
"c1ccc([C@@H]2CC[C@@H](NC3CC3)c3ccccc32)cc1 (relative stereo) [Trans-isomer of Example VII, trans-dl-N-cyclopropyl-4-phenyl-1,2,3,4-tetrahydro-1-naphthylamine hydrochloride]","Mean Rectal Temperature, Temp. (° C.) ±S.D.",[1],32.6 ± 0.7 °C
"CNCCCN1c2ccccc2CCc2ccccc21 [desmethylimipramine, reference compound]",hyperactive response,[2]; i.p.,failed to elicit any hyperactive response whatsoever
"CN(C)[C@@H]1CC[C@@H](c2ccccc2)c2ccccc21 (relative stereo) [Trans-isomer of Example VIII, trans-dl-N,N-dimethyl-4-phenyl-1,2,3,4-tetrahydro-1-naphthylamine hydrochloride]",Sp. Activity of Heart H^3 NE (% Control),[3],49 % Control
same,"Mean Rectal Temperature, Temp. (° C.) ±S.D.",[1],33.5 ± 1.4 °C
"CCN[C@@H]1CC[C@@H](c2ccccc2)c2ccccc21 (relative stereo) [Trans-isomer of Example V, trans-dl-N-ethyl-4-phenyl-1,2,3,4-tetrahydro-1-naphthylamine hydrochloride]",Sp. Activity of Heart H^3 NE (% Control),[3]; hydrochloride,71 % Control and 75 % Control
same,"Mean Rectal Temperature, Temp. (° C.) ±S.D.",[1],33.5 ± 0.9 °C
"c1ccc([C@@H]2CC[C@@H](NC3CC3)c3ccccc32)cc1 (relative stereo) [trans-dl-N-cyclopropyl-4-phenyl-1,2,3,4-tetrahydro-1-naphthylamine]",degree of antidepressant activity,[4],markedly high degree of antidepressant activity
"N[C@@H]1CC[C@@H](c2ccccc2)c2ccccc21 (relative stereo) [trans-dl-4-phenyl-1,2,3,4-tetrahydro-1-naphthylamine]",degree of antidepressant activity,[4],markedly high degree of antidepressant activity
"CNCCCC1c2ccccc2C=Cc2ccccc21 [protriptlyine, protriptyline, reference compound]",hyperactive response,[2]; i.p.,failed to elicit any hyperactive response whatsoever
"CN[C@H]1CC[C@H](c2ccccc2)c2ccccc21 [Trans-l-isomer of Example III, trans-l-N-methyl-4-phenyl-1,2,3,4-tetrahydro-1-naphthylamine hydrochloride]","Mean Rectal Temperature, Temp. (° C.) ±S.D.",[1],27.5 ± 2.9 °C
same,stimulant effect,[2]; 10 and 32 mg./kg. (i.p.),little evidence of a stimulant effect
"CN[C@H]1CC[C@@H](c2ccccc2)c2ccccc21 (relative stereo) [Cis-isomer of Example IV, cis-dl-N-methyl-4-phenyl-1,2,3,4-tetrahydro-1-naphthylamine hydrochloride]",Sp. Activity of Heart H^3 NE (% Control),[3]; hydrochloride,87 % Control and 104 % Control
same,"Mean Rectal Temperature, Temp. (° C.) ±S.D.",[1],27.0 ± 3.4 °C
"N[C@H]1CC[C@@H](c2ccccc2)c2ccccc21 (relative stereo) [Cis-isomer of Example IX, cis-dl-4-phenyl-1,2,3,4-tetrahydro-1-naphthylamine hydrochloride]",Sp. Activity of Heart H^3 NE (% Control),[3],93 % Control
same,"Mean Rectal Temperature, Temp. (° C.) ±S.D.",[1],30.8 ± 2.6 °C
"CCN[C@@H]1CC[C@@H](c2ccccc2)c2ccccc21 (relative stereo) [trans-dl-N-ethyl-4-phenyl-1,2,3,4-tetrahydro-1-naphthylamine]",degree of antidepressant activity,[4],markedly high degree of antidepressant activity
"CCN[C@H]1CC[C@@H](c2ccccc2)c2ccccc21 (relative stereo) [Cis-isomer of Example V, cis-dl-N-ethyl-4-phenyl-1,2,3,4-tetrahydro-1-naphthylamine hydrochloride]",Sp. Activity of Heart H^3 NE (% Control),[3],144 % Control
same,"Mean Rectal Temperature, Temp. (° C.) ±S.D.",[1],28.0 ± 2.3 °C
"c1ccc([C@@H]2CC[C@H](NC3CC3)c3ccccc32)cc1 (relative stereo) [Cis-isomer of Example VII, cis-dl-N-cyclopropyl-4-phenyl-1,2,3,4-tetrahydro-1-naphthylamine hydrochloride]","Mean Rectal Temperature, Temp. (° C.) ±S.D.",[1],25.3 ± 4.4 °C
"CC(C)N[C@@H]1CC[C@@H](c2ccccc2)c2ccccc21 (relative stereo) [Trans-isomer of Example VI, trans-dl-N-isopropyl-4-phenyl-1,2,3,4-tetrahydro-1-naphthylamine hydrochloride]","Mean Rectal Temperature, Temp. (° C.) ±S.D.",[1],32.6 ± 0.7 °C
"CC(C)N[C@@H]1CC[C@@H](c2ccccc2)c2ccccc21 (relative stereo) [trans-dl-N-isopropyl-4-phenyl-1,2,3,4-tetrahydro-1naphthylamine]",degree of antidepressant activity,[4],markedly high degree of antidepressant activity
"CC(C)N[C@H]1CC[C@@H](c2ccccc2)c2ccccc21 (relative stereo) [Cis-isomer of Example VI, cis-dl-N-isopropyl-4-phenyl-1,2,3,4-tetrahydro-1-naphthylamine hydrochloride]","Mean Rectal Temperature, Temp. (° C.) ±S.D.",[1],27.3 ± 3.6 °C
"CN(C)[C@H]1CC[C@@H](c2ccccc2)c2ccccc21 (relative stereo) [Cis-isomer of Example VIII, cis-dl-N,N-dimethyl-4-phenyl-1,2,3,4-tetrahydro-1-naphthylamine hydrochloride]",Sp. Activity of Heart H^3 NE (% Control),[3],120 % Control
same,"Mean Rectal Temperature, Temp. (° C.) ±S.D.",[1],31.4 ± 2.4 °C
"CN(C)[C@@H]1CC[C@@H](c2ccccc2)c2ccccc21 (relative stereo) [trans-dl-N,N-dimethyl-4-phenyl-1,2,3,4-tetrahydro-1-naphthylamine]",degree of antidepressant activity,[4],markedly high degree of antidepressant activity
"Cl.N[C@@H]1CC[C@@H](c2ccccc2)c2ccccc21 (relative stereo) [Trans-isomer of Example IX, trans-4-phenyl-1,2,3,4-tetrahydro-1-naphthylamine hydrochloride]",Sp. Activity of Heart H^3 NE (% Control),[3]; hydrochloride,60 % Control and 66 % Control
same,"Mean Rectal Temperature, Temp. (° C.) ±S.D.",[1],31.8 ± 2.5 °C
"CN[C@@H]1CC[C@@H](c2ccccc2)c2ccccc21 (relative stereo) [Trans-isomer of Example IV, trans-dl-N-methyl-4-phenyl-1,2,3,4-tetrahydro-1-naphthylamine hydrochloride]",Sp. Activity of Heart H^3 NE (% Control),[3]; hydrochloride,14 % Control and 19 % Control and 21 % Control and 25 % Control
same,"Mean Rectal Temperature, Temp. (° C.) ±S.D.",[1],33.5 ± 1.5 °C
same,time course / duration of effect,[2]; 32 mg./kg. i.p.,especially long-lived
same,potency compared with dextrorotatory isomer,"[2]; i.p., spontaneous motor activity",somewhat less potent than the aforesaid dextrorotatory isomer
